These results are taken from patent US10369138B2, “Monobactam organic compounds for the treatment of bacterial infections” (Novartis AG, priority 2014, dated 2019).

One assay has as its system E. coli strain 25922. Nature of the assay: MIC by broth microdilution, E. coli strain 25922. The assay is classed as cell-based. The following applies: Escherichia coli, 25922, E. coli strain 25922; read-out: Ec 25922 (MIC). An outline of the steps: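 CLSI broth microdilution in cation-adjusted Mueller-Hinton broth, inoculum about 5×10^5 CFU/mL, 10% DMSO from the diluted series, 20 h at 35-37° C. MIC is the lowest concentration preventing visible growth, read by eye and at 600 nm.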

The next assay has as its system E. coli containing KPC-2. Nature of the assay: MIC by broth microdilution, E. coli containing KPC-2 (Ec KPC2 Iso). The assay is classed as cell-based. The conditions noted are these: Escherichia coli, read-out: Ec KPC2 Iso (MIC), E. coli containing KPC-2 (carbapenemase from Klebsiella pneumoniae). An outline of the steps: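 Host E. coli BW25113 pspB carrying multicopy pBAD18-kan plasmid with constitutive TEM-promoter KPC-2 expression (periplasmic signal sequence); broth microdilution per CLSI in cation-adjusted Mueller-Hinton broth, inoculum ~5×10^5 CFU/mL, compounds twofold serially diluted from DMSO masters (10% DMSO in dilution series added).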

The structures appear in SMILES notation. Values after ≈ are worked out from the molar mass of the structure shown.

For `NCCNC(=O)NC[C@@H]1CN(C[C@@H]2[C@H](NC(=O)/C(=N\OC3(C(=O)O)CC3)c3csc(N)n3)C(=O)N2S(=O)(=O)O)C(=O)O1` [Example 111, 1-(((Z)-(2-(((2R,3S)-2-(((R)-5-((3-(2-aminoethyl)ureido)methyl)-2-oxooxazolidin-3-yl)methyl)-4-oxo-1-sulfoazetidin-3-yl)amino)-1-(2-aminothiazol-4-yl)-2-oxoethylidene)amino)oxy)cyclopropanecarboxylic acid], the MIC in the assay on E. coli strain 25922 and in the assay on E. coli containing KPC-2 was not above 0.06 µg/mL in each case.

`Nc1nc(/C(=N/OC2(C(=O)O)CC2)C(=O)N[C@@H]2C(=O)N(S(=O)(=O)O)[C@@H]2Cn2ncc(CNC3CCNCC3)n2)cs1` [Example 112, 1-(((Z)-(1-(2-aminothiazol-4-yl)-2-oxo-2-(((3S,4R)-2-oxo-4-((4-((piperidin-4-ylamino)methyl)-2H-1,2,3-triazol-2-yl)methyl)-1-sulfoazetidin-3-yl)amino)ethylidene)amino)oxy)cyclopropanecarboxylic acid]: the MIC with E. coli strain 25922 and in the assay with E. coli containing KPC-2 was 0.5 µg/mL (≈ 0.816 µM) each time.

As to `CC(C)(O/N=C(\C(=O)N[C@@H]1C(=O)N(S(=O)(=O)O)[C@@H]1CN1CCC1=O)c1csc(N)n1)C(=O)O` [Example 113, 2-(((Z)-(1-(2-aminothiazol-4-yl)-2-oxo-2-(((3S,4R)-2-oxo-4-((2-oxoazetidin-1-yl)methyl)-1-sulfoazetidin-3-yl)amino)ethylidene)amino)oxy)-2-methylpropanoic acid], the MIC in the assay with E. coli strain 25922 and in the assay with E. coli containing KPC-2 was 4 µg/mL (≈ 7.93 µM) throughout.

As to `N=C(N)NCCCNCc1cnn(C[C@@H]2[C@H](NC(=O)/C(=N\OC3(C(=O)O)CC3)c3csc(N)n3)C(=O)N2S(=O)(=O)O)n1` [Example 114, 1-(((Z)-(1-(2-aminothiazol-4-yl)-2-(((2R,3S)-2-((4-(((3-guanidinopropyl)amino)methyl)-2H-1,2,3-triazol-2-yl)methyl)-4-oxo-1-sulfoazetidin-3-yl)amino)-2-oxoethylidene)amino)oxy)cyclopropanecarboxylic acid], the MIC in the assay with E. coli strain 25922 is 0.25 µg/mL (≈ 0.398 µM); in the assay with E. coli containing KPC-2, not above 0.06 µg/mL.

With `CN(CCCN)Cc1cnn(C[C@@H]2[C@H](NC(=O)/C(=N\OC3(C(=O)O)CC3)c3csc(N)n3)C(=O)N2S(=O)(=O)O)n1` [Example 115, 1-(((Z)-(2-(((2R,3S)-2-((4-(((3-aminopropyl)(methyl)amino)methyl)-2H-1,2,3-triazol-2-yl)methyl)-4-oxo-1-sulfoazetidin-3-yl)amino)-1-(2-aminothiazol-4-yl)-2-oxoethylidene)amino)oxy)cyclopropanecarboxylic acid], the MIC in the assay with E. coli strain 25922 came to 0.125 µg/mL (≈ 0.208 µM); in the assay with E. coli containing KPC-2 it was 0.25 µg/mL (≈ 0.416 µM).

For the molecule `CNCCCNCc1cnn(C[C@@H]2[C@H](NC(=O)/C(=N\OC3(C(=O)O)CC3)c3csc(N)n3)C(=O)N2S(=O)(=O)O)n1` [Example 116, 1-(((Z)-(1-(2-aminothiazol-4-yl)-2-(((2R,3S)-2-((4-(((3-(methylamino)propyl)amino)methyl)-2H-1,2,3-triazol-2-yl)methyl)-4-oxo-1-sulfoazetidin-3-yl)amino)-2-oxoethylidene)amino)oxy)cyclopropanecarboxylic acid], the MIC in the assay with E. coli strain 25922 was 0.25 µg/mL (≈ 0.416 µM); with E. coli containing KPC-2, 0.125 µg/mL (≈ 0.208 µM).

For the molecule `CNCCNCc1cnn(C[C@@H]2[C@H](NC(=O)/C(=N\OC3(C(=O)O)CC3)c3csc(N)n3)C(=O)N2S(=O)(=O)O)n1` [Example 117, 1-(((Z)-(1-(2-aminothiazol-4-yl)-2-(((2R,3S)-2-((4-(((2-(methylamino)ethyl)amino)methyl)-2H-1,2,3-triazol-2-yl)methyl)-4-oxo-1-sulfoazetidin-3-yl)amino)-2-oxoethylidene)amino)oxy)cyclopropanecarboxylic acid], the values for the MIC in the assay on E. coli strain 25922 and in the assay on E. coli containing KPC-2 were 0.5 µg/mL (≈ 0.852 µM) and 1 µg/mL (≈ 1.7 µM), respectively.

In the case of `NCCCCNCc1cnn(C[C@@H]2[C@H](NC(=O)/C(=N\OC3(C(=O)O)CC3)c3csc(N)n3)C(=O)N2S(=O)(=O)O)n1` [Example 118, 1-(((Z)-(2-(((2R,3S)-2-((4-(((4-aminobutyl)amino)methyl)-2H-1,2,3-triazol-2-yl)methyl)-4-oxo-1-sulfoazetidin-3-yl)amino)-1-(2-aminothiazol-4-yl)-2-oxoethylidene)amino)oxy)cyclopropanecarboxylic acid], the results for the MIC in the assay on E. coli strain 25922 and with E. coli containing KPC-2 were 0.5 µg/mL (≈ 0.832 µM) and 0.25 µg/mL (≈ 0.416 µM), respectively.

Consider `N=C(NCCCN)NCc1cnn(C[C@@H]2[C@H](NC(=O)/C(=N\OC3(C(=O)O)CC3)c3csc(N)n3)C(=O)N2S(=O)(=O)O)n1` [Example 119, 1-(((Z)-(2-(((2R,3S)-2-((4-((3-(3-aminopropyl)guanidino)methyl)-2H-1,2,3-triazol-2-yl)methyl)-4-oxo-1-sulfoazetidin-3-yl)amino)-1-(2-aminothiazol-4-yl)-2-oxoethylidene)amino)oxy)cyclopropanecarboxylic acid], for which the MIC in the assay with E. coli strain 25922 and in the assay with E. coli containing KPC-2 was 0.25 µg/mL (≈ 0.398 µM) throughout.

As to `N=C(NCCCN)NCc1cn(C[C@@H]2[C@H](NC(=O)/C(=N\OC3(C(=O)O)CC3)c3csc(N)n3)C(=O)N2S(=O)(=O)O)nn1` [Example 120, 1-(((Z)-(2-(((2R,3S)-2-((4-((3-(3-aminopropyl)guanidino)methyl)-1H-1,2,3-triazol-1-yl)methyl)-4-oxo-1-sulfoazetidin-3-yl)amino)-1-(2-aminothiazol-4-yl)-2-oxoethylidene)amino)oxy)cyclopropanecarboxylic acid], the MIC with E. coli strain 25922 came to 0.25 µg/mL (≈ 0.398 µM); with E. coli containing KPC-2 it was 0.5 µg/mL (≈ 0.795 µM).

Take `CC(C)(O/N=C(\C(=O)N[C@@H]1C(=O)N(S(=O)(=O)O)[C@@H]1CN1C(=O)CCC1=O)c1csc(N)n1)C(=O)O` [Example 121, 2-(((Z)-(1-(2-aminothiazol-4-yl)-2-(((2R,3S)-2-((2,5-dioxopyrrolidin-1-yl)methyl)-4-oxo-1-sulfoazetidin-3-yl)amino)-2-oxoethylidene)amino)oxy)-2-methylpropanoic acid]: the MIC in the assay with E. coli strain 25922 and in the assay on E. coli containing KPC-2 was 0.25 µg/mL (≈ 0.469 µM) each time.

As for `C[N+](C)(C)CCCNCc1cnn(C[C@@H]2[C@H](NC(=O)/C(=N\OC3(C(=O)O)CC3)c3csc(N)n3)C(=O)N2S(=O)(=O)O)n1` [Example 123, 3-(((2-(((2R,3S)-3-((Z)-2-(2-aminothiazol-4-yl)-2-((1-carboxycyclopropoxy)imino)acetamido)-4-oxo-1-sulfoazetidin-2-yl)methyl)-2H-1,2,3-triazol-4-yl)methyl)amino)-N,N,N-trimethylpropan-1-aminium], the figures for the MIC in the assay on E. coli strain 25922 and in the assay on E. coli containing KPC-2 were 1 µg/mL and 0.5 µg/mL, respectively.

Take `N=C(NCc1cnn(C[C@@H]2[C@H](NC(=O)/C(=N\OC3(C(=O)O)CC3)c3csc(N)n3)C(=O)N2S(=O)(=O)O)n1)N[C@H]1C[C@H](N)C1` [Example 125, 1-(((Z)-(2-(((2R,3S)-2-((4-((3-((1 r,3R)-3-aminocyclobutyl)guanidino)methyl)-2H-1,2,3-triazol-2-yl)methyl)-4-oxo-1-sulfoazetidin-3-yl)amino)-1-(2-aminothiazol-4-yl)-2-oxoethylidene)amino)oxy)cyclopropanecarboxylic acid]: the MIC with E. coli strain 25922 is 0.25 µg/mL (≈ 0.39 µM); in the assay on E. coli containing KPC-2, 0.5 µg/mL (≈ 0.78 µM).

In the case of `N=C(NCc1cnn(C[C@@H]2[C@H](NC(=O)/C(=N\OC3(C(=O)O)CC3)c3csc(N)n3)C(=O)N2S(=O)(=O)O)n1)NCC1CNC1` [Example 126, 1-(((Z)-(1-(2-aminothiazol-4-yl)-2-(((2R,3S)-2-((4-((3-(azetidin-3-ylmethyl)guanidino)methyl)-2H-1,2,3-triazol-2-yl)methyl)-4-oxo-1-sulfoazetidin-3-yl)amino)-2-oxoethylidene)amino)oxy)cyclopropanecarboxylic acid], the MIC in the assay with E. coli strain 25922 and in the assay on E. coli containing KPC-2 was 0.5 µg/mL (≈ 0.78 µM) each time.

For `N=C(NCc1cnn(C[C@@H]2[C@H](NC(=O)/C(=N\OC3(C(=O)O)CC3)c3csc(N)n3)C(=O)N2S(=O)(=O)O)n1)N1CC(CN)C1` [Example 127, 1-(((Z)-(2-(((2R,3S)-2-((4-((3-(aminomethyl)azetidine-1-carboximidamido)methyl)-2H-1,2,3-triazol-2-yl)methyl)-4-oxo-1-sulfoazetidin-3-yl)amino)-1-(2-aminothiazol-4-yl)-2-oxoethylidene)amino)oxy)cyclopropanecarboxylic acid], the MIC in the assay on E. coli strain 25922 and in the assay on E. coli containing KPC-2 was 0.25 µg/mL (≈ 0.39 µM) each time.

As for `N=C(NCc1cnn(C[C@@H]2[C@H](NC(=O)/C(=N\OC3(C(=O)O)CC3)c3csc(N)n3)C(=O)N2S(=O)(=O)O)n1)NC1CCNCC1` [Example 128, 1-(((Z)-(1-(2-aminothiazol-4-yl)-2-oxo-2-(((3S,4R)-2-oxo-4-((4-((3-(piperidin-4-yl)guanidino)methyl)-2H-1,2,3-triazol-2-yl)methyl)-1-sulfoazetidin-3-yl)amino)ethylidene)amino)oxy)cyclopropanecarboxylic acid], the MIC in the assay with E. coli strain 25922 came out at 0.5 µg/mL (≈ 0.764 µM); in the assay on E. coli containing KPC-2, 1 µg/mL (≈ 1.53 µM).

For `N=C(NCCN)NCc1cnn(C[C@@H]2[C@H](NC(=O)/C(=N\OC3(C(=O)O)CC3)c3csc(N)n3)C(=O)N2S(=O)(=O)O)n1` [Example 129, 1-(((Z)-(2-(((2R,3S)-2-((4-((3-(2-aminoethyl)guanidino)methyl)-2H-1,2,3-triazol-2-yl)methyl)-4-oxo-1-sulfoazetidin-3-yl)amino)-1-(2-aminothiazol-4-yl)-2-oxoethylidene)amino)oxy)cyclopropanecarboxylic acid], the MIC in the assay on E. coli strain 25922 was 0.5 µg/mL (≈ 0.814 µM); in the assay on E. coli containing KPC-2, 1 µg/mL (≈ 1.63 µM).

As for `N=C(N)N(CCCN)Cc1cnn(C[C@@H]2[C@H](NC(=O)/C(=N\OC3(C(=O)O)CC3)c3csc(N)n3)C(=O)N2S(=O)(=O)O)n1` [Example 130, 1-(((Z)-(2-(((2R,3S)-2-((4-((1-(3-aminopropyl)guanidino)methyl)-2H-1,2,3-triazol-2-yl)methyl)-4-oxo-1-sulfoazetidin-3-yl)amino)-1-(2-aminothiazol-4-yl)-2-oxoethylidene)amino)oxy)cyclopropanecarboxylic acid], the MIC in the assay with E. coli strain 25922 stood at 1 µg/mL (≈ 1.59 µM); in the assay with E. coli containing KPC-2, 2 µg/mL (≈ 3.18 µM).
